According to patent US12582719B2, “Chimeric compounds and methods of managing neurological disorders or conditions” (Emory University, priority 2019, dated 2026):
Entries after “also recorded” stand apart in the source; their conditions may differ.

Tests used:
[1] = test system: antidepressant-like behavioral effects; settings: behaviorally inactive dose of ACY-738 co-administered with sub-effective dose of citalopram; cited from earlier work
histone H4 deacetylation = assay: In vitro HDACI activity test (western blot, acetylated histone H4); format: cell-based; settings: 9 L rat glioma cell line; for histone H4 acetylation: 5 μM, western blot
Experimental: The HDACI activity chimeric compounds were tested by western blot using a specific antibody against acetylated histone H4, and 9 L rat glioma cell line. the inhibitory activity of HM3a-R was analyzed at different concentrations (1 μM or 5 μM) on histone H4 deacetylation, compared with established HDACi, entinostat, (pyridin-3-yl)methyl-4-(2-aminophenylcarbamoyl)benzylcarbamate, MS-275 (1 μM or 5 μM) as positive controls.

xylene-induced ear edema = assay: Xylene-induced mouse ear edema test; format: in vivo, mice; settings: for anti-inflammation effect compared with the control group against xylene-induced ear edema: 10 mg/kg intraperitoneally, C57BL female mice, 2 h after xylene
Experimental: Randomly selected C57BL adult female mice (6 weeks, ˜20 g) were divided into three groups of five mice in per group. Chimeric compounds (HM3a-R, HM3a-S, FIG. 2A) were dissolved in 10% dimethyl sulfoxide and 90% vehicle mixture. Vehicle formulation is 45% (2-hydroxypropyl)-β-cyclodextrin solution. And then, the compounds or vehicle were injected into mice as does 10 mg/kg and injection volume 100 μL intraperitoneally. After 30 min, mice treated 30 μL of xylene on the anterior and posterior surfaces of the right ear lobe, the left ear was considered as control. Two hours later, mice were sacrificed by using CO2 gas and both ears were cut off by using a cork borer with a diameter of 7 mm and weighed and the percentage of ear edema was calculated based on the weight of another ear without xylene.

[2] = test system: carrageenan-induced paw edema; assay: Carrageenan-induced paw edema model; settings: in vivo
[3] = test system: LPS-induced depressive behavior (immobility); assay: Tail suspension test (TST) with lipopolysaccharide-induced depressive behavior; format: in vivo, mice
Experimental: Randomly selected NIH Swiss adult male mice (7 weeks, ˜30 g) were divided into three groups of 5 mice in per group. LPS (Lipopolysaccharide) was administered as does 850 μg/kg in saline 100 μL intraperitoneally. After 1 h, chimeric compound (HM3a-R, FIG. 2A) or belinostat (Spectrum Pharmaceutical, Irvine, CA) was injected into mice as does 75 mg/kg in vehicle 100 μL intraperitoneally. Then the compounds were dissolved in 10% dimethyl sulfoxide and 90% vehicle mixture. Vehicle formulation is 45% (2-hydroxypropyl)-β-cyclodextrin solution. After 6 h and 24 h, tail suspension test was performed. Every tail-hanged mouse was video-recorded for 6 minutes. […] The tail suspension test (TST) was performed to assess antidepressant-like activity using lipopolysaccharide (LPS) which is an endotoxin that causes depressive behavior in mice. The antidepressant activities of HM3a-R and belinostat were compared with a control.

[4] = test system: immobility in forced swim test; assay: Forced swimming test (FST); format: in vivo, mice; settings: for improvement in forced-swim test (antidepressant-like activity): C57BL female mice, 6 h after injection, versus control
Experimental: The FST experiment was performed twice, the first experiment comparing the control group and the HM3a-R group, and the second experiment comparing the control group and the belinostat group. In the first FST, randomly selected C57BL adult female mice (6 weeks, 20 g) were divided into two groups of eight mice per group. And the second FST, randomly selected C57BL adult female mice (6 weeks, 20 g) were divided into two groups of five mice per group. Chimeric compounds, HM3a-R (FIG. 2A) was dissolved in 10% dimethyl sulfoxide and 90% vehicle mixture. Vehicle formulation is 45% (2-hydroxypropyl)-β-cyclodextrin solution. Then, HM3a-R or belinostat as dose 75 mg/kg or vehicle (for control) was injected into mice with 100 μL volume intraperitoneally. After 6 h, two 3-liter beakers were filled approximately with 2 L water at 25+/-0.5 degrees Celsius. Camcorder was placed, directly across from two beakers. Each pair of mice (i.e., one control mouse and one treated mouse) was placed into each beaker. Every trial was video recorded in this manner for 10 minutes. While the beakers were adjacent to each other, they were enclosed by cardboard boxes. The immobile times (between 2 and 8 minutes of 10-minute trial) for each pair of mice were counted by the person who was blinded to the identities of the control and treated mice pairs.

Cellular toxicity = format: cell-based
[5] = test system: antidepressant-like activity in animal models; assay: In vivo screening in animal models (antidepressant-like activity); settings: compared with PDX-101 (belinostat)
[6] = test system: depressive symptoms among GBM patients; assay: Clinical trial of vorinostat in recurrent glioblastoma, depression assessed by IDS-SR; format: in vivo, human
Experimental: A clinical trial was performed to evaluate vorinostat for the treatment of recurrent glioblastomas (GBM). Among the pleiotropic effects of HDAC inhibitors is the ability to attenuate inflammation, an action seen at concentrations lower than those required to slow cancer cell growth. GBM is frequently associated with neuroinflammation, which is thought to have pro-tumorigenic effects. […] Such changes are associated with recruitment of macrophages along a hypoxia-mediated chemotactic gradient. Macrophages recruited to hypoxic sites exert tumor-promoting effects through the expression of genes with mitogenic, angiogenic, and migration/invasion stimulating properties. Abrogating inflammatory changes associated with GBM might reduce or eliminate access to these tumor-promoting effects. Another intriguing effect of HDACis as anticancer agents might be their mood-enhancing, potentially anti-depressant, properties. In mice, decreased histone acetylation in key mood-relevant genes was found following chronic social defeat stress, a mouse model of depression. […]
During the clinical trial, levels of depression were assessed using the Inventory of Depressive Symptomatology-Self Report (IDS-SR) to determine whether vorinostat alters the severity of depressive symptoms among GBM patients. […]

[7] = 75 mg/kg intraperitoneally, LPS 850 μg/kg, NIH Swiss male mice

O=C(NO)c1cnc(NC2(c3ccccc3)CC2)nc1 [ACY-738]
effects comparable to a higher dose of citalopram administered alone [1]: ~40 fold

COC(=O)[C@]1(c2ccc(Cl)c(Cl)c2)C[C@H]1CNCc1ccc(C(=O)NO)cc1 [HM3a-R, (1R,2R)-methyl-1-(3,4-dichlorophenyl)-2-(((4-(hydroxycarbamoyl)benzyl)amino)methyl) cyclopropane-1-carboxylate]
histone H4 acetylation (histone H4 deacetylation): increased histone H4 acetylation | anti-inflammation effect compared with the control group against xylene-induced ear edema (xylene-induced ear edema): 48% | effectiveness against ear inflammation, comparison of enantiomers (xylene-induced ear edema; FIG. 3): more effective than HM3a-S | effectiveness against carrageenan-induced paw edema, comparison of enantiomers [2]: more effective | duration of immobility in TST at 6 h [3, 7]: significantly reduced duration of immobility; also recorded: reduction in immobility | duration of immobility in TST at 24 h ([3]; 75 mg/kg intraperitoneally, LPS 850 μg/kg, NIH Swiss male mice, 24 h): as effective as belinostat; also recorded: reduction in immobility | onset of antidepressant action in TST versus belinostat ([3]; P<0.01, n=5): faster onset of antidepressant action | duration of immobility in FST ([4]; 75 mg/kg intraperitoneally, 6 h, P<0.05): significantly less duration of immobility | improvement in forced-swim test (antidepressant-like activity) ([4]; 75 mg/kg intraperitoneally): 23% | antidepressant-like activity in FST relative to belinostat ([4]; 23% vs. 12%): almost two-fold | cellular toxicity (Cellular toxicity): without cellular toxicity | antidepressant-like activity and onset time in animal models [5]: excellent antidepressant-like activity and fast onset time

COC(=O)[C@@]1(c2ccc(Cl)c(Cl)c2)C[C@@H]1CNCc1ccc(C(=O)NO)cc1 [HM3a-S, (1S,2S)-methyl-1-(3,4-dichlorophenyl)-2-(((4-(hydroxycarbamoyl)benzyl)amino)methyl) cyclopropane-1-carboxylate]
anti-inflammation effect compared with the control group against xylene-induced ear edema (xylene-induced ear edema): 23%

Nc1ccccc1NC(=O)c1ccc(CNC(=O)OCc2cccnc2)cc1 [MS-275, (pyridin-3-yl)methyl-4-(2-aminophenylcarbamoyl)benzylcarbamate]
inhibition of histone H4 deacetylation, comparison (histone H4 deacetylation; 1 μM and 5 μM): higher inhibitions than HM3a-R | histone H4 acetylation (histone H4 deacetylation): increased histone H4 acetylation

O=C(/C=C/c1cccc(S(=O)(=O)Nc2ccccc2)c1)NO [belinostat, reference compound]
duration of immobility in TST at 6 h [3, 7]: didn't show any effect | improvement in forced-swim test (antidepressant-like activity) ([4]; 75 mg/kg intraperitoneally): 12%

O=C(CCCCCCC(=O)Nc1ccccc1)NO [vorinostat]
GBM patients with improved IDS-SR scores ([6]; 7 days of vorinostat treatment): 67% | side effect ([6]; most patients on treatment for more than 3 weeks): fatigue
